Data taken from patent US5420128A, “Pyrimidine derivatives, method of manufacturing the same, and androgen inhibitor” (Otsuka Pharmaceutical Co., Ltd., priority 1990, dated 1995).

Target: T1, rat prostate androgen receptor (Rattus norvegicus, UniProt P15207)
T1 construct: the supernatant was obtained as cytoplasm fraction; from tissue; host or cells: cytosol (105000×g supernatant) of rat ventral prostate, 24 hours after castration
T1 sequence (P15207 1-902): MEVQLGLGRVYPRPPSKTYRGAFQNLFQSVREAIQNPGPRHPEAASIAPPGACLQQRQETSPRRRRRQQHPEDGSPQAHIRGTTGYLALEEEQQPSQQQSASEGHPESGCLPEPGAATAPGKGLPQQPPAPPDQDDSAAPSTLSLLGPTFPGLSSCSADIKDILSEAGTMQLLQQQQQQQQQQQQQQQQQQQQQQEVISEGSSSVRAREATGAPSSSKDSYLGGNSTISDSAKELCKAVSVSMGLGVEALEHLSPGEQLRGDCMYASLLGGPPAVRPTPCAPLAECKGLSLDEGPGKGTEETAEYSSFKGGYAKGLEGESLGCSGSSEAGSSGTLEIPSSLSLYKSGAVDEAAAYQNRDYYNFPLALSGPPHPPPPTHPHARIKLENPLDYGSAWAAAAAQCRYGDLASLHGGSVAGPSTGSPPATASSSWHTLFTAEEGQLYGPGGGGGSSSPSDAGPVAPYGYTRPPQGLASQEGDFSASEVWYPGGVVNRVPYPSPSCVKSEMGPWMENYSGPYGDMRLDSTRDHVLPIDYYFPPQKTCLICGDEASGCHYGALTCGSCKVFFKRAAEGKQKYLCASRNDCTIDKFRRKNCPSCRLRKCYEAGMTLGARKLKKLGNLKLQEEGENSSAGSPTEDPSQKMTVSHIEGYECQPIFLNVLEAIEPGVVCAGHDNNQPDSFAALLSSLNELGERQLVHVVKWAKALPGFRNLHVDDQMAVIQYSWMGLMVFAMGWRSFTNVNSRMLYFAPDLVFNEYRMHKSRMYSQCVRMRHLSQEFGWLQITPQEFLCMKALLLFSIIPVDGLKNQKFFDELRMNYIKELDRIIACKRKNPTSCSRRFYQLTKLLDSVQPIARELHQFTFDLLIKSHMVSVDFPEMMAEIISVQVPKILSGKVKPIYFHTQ
Experiment: inhibitory activity on binding of ^3 H-mibolerone on rat prostate androgen receptor
Conditions: ^3 H-mibolerone 1 nM, triamcinolone acetonide 5 μM, rat ventral prostate cytosol, 20 hours at 0° C.; read-out: Inhibitory activity on mibolerone specific binding [IC50 (M)]
Method: B. Measurement of inhibitory activity on binding of ^3 H-mibolerone on rat prostate androgen receptor
(1) Preparation of cytosol from rat prostate
The rat was sacrificed 24 hours after castration, and the ventral lobe of prostate was removed, and was gently homogenized, in ice-cooling water bath, at first by using Polytron and then using Potter type homogenizer, in three-fold amount of buffer solution A (1.5 mM EDTA, 2 mM dithiothreitol, 10 mM molybdate sodium, 10 % by volume of glycerol, 10 mM NaF, 25 mM phosphate sodium, pH 7.2). The obtained homogenate was filtrated through double gauze, and centrifuged at 105000×g for 60 minutes at 4° C., and the supernatant was obtained as cytoplasm fraction.
(2) Measurement of specific binding of ^3 H-mibolerone on prostate cytoplasm androgen receptor
To the cytoplasm fraction obtained in (1), ^3 H-mibolerone (87.0 Ci/mmol) was added, so that a final concentration is adjusted to 1 nM, and at the same time, in order to inhibit binding of ^3 H-mibolerone to progestin receptor, triamsinolone acetonide was added to a final concentration of 5 μM, and the final volume was adjusted to 0.4 ml with buffer solution A, and the reaction mixture was incubated for 20 hours at 0° C. After incubation, 0.5 ml of 60% hydroxylapatite slurry (washed and equilibrate with a buffer solution B: 10 mM NaH2 P04, 20 mM tris-hydrochloric acid, pH 7.2) was added, and incubated for 10 minutes at 0° C., the solution was transferred onto a glass fiber filter, and washed five times with 5 ml portions of buffer solution B containing 0.1% (weight/volume) of Triton X-100, to remove free ^3 H-mibolerone. This glass fiber was transferred into vial, and 10 ml of aquasol-2 was added, and the radioactivity was measured, and the total binding amount of ^3 H-mibolerone on prostate cytoplasm androgen receptor was determined.
The nonspecific binding amount was determined similarly by adding an unlabeled 5α-DHT in the reaction solution to a final concentration of 1 μM. The difference between the total binding amount and nonspecific binding amount was determined as the specific binding amount on the androgen receptor.
(3) Inhibitory activity of sample compounds on ^3 H-mibolerone specific binding
The compounds obtained in the experiments were added simultaneously with ^3 H-mibolerone at different concentrations to incubate same as in (2), and the specific binding amount of 3H-mibolerone on androgen receptor was determined. Comparing this value with the value obtained in (2), the IC50 value of inhibitory activity of the compounds on ^3 H-mibolerone specific binding was determined.

Compound | IC50 [M]
7-Hydroxy-6-ethoxycarbonylmethyl-3-(4-phenylthiophenyl)pyrazolo[1,5-a]pyrimidine [Example 34] | 2.9e-07
CCc1cc(O)n2ncc(-c3ccc(Sc4ccccc4)cc3)c2n1 [Example 6, 7-Hydroxy-5-ethyl-3-(4-phenylthiophenyl)pyrazolo[1,5-a]pyrimidine] | 9e-07
CC(C)c1cc(O)n2ncc(-c3ccc(Sc4ccccc4)cc3)c2n1 [Example 7, 7-Hydroxy-5-isopropyl-3-(4-phenylthiophenyl)pyrazolo[1,5-a]pyrimidine] | 1.3e-05
Oc1cc(C2CC2)nc2c(-c3ccc(Sc4ccccc4)cc3)cnn12 [Example 8, 7-Hydroxy-5-cyclopropyl-3-(4-phenylthiophenyl)pyrazolo[1,5-a]pyrimidine] | 1.7e-06
Oc1cc(CCl)nc2c(-c3ccc(Sc4ccccc4)cc3)cnn12 [Example 9, 7-Hydroxy-5-chloromethyl-3-(4-phenylthiophenyl)pyrazolo[1,5-a]pyrimidine] | 3.1e-05
Oc1c2c(nc3c(-c4ccc(Sc5ccccc5)cc4)cnn13)CCC2 [Example 11, 5H-6,7-Dihydro-8-hydroxy-3-(4-phenylthiophenyl)cyclopenta[d]pyrazolo[1,5-a]pyrimidine] | 4.2e-07
Oc1c2c(nc3c(-c4ccc(Sc5ccccc5)cc4)cnn13)CCCC2 [Example 12, 9-Hydroxy-3-(4-phenylthiophenyl)-5,6,7,8-tetrahydropyrazolo[5,1-b]quinazoline] | > 5e-06
Oc1cc(C(F)(F)F)nc2c(-c3ccc(Sc4ccccc4)cc3)cnn12 [Example 13, 7-Hydroxy-5-trifluoromethyl-3-(4-phenylthiophenyl)pyrazolo[1,5-a]pyrimidine] | 2e-06
CCOC(=O)c1cnc2c(-c3ccc(Sc4ccccc4)c(OC)c3)cnn2c1O [Example 14, 7-Hydroxy-6-ethoxycarbonyl-3-(3-methoxy-4-phenylthiophenyl)pyrazolo[1,5-a]pyrimidine] | 2e-07
COc1cc(-c2cnn3c(O)ccnc23)ccc1Sc1ccccc1 [Example 15, 7-Hydroxy-3-(3-methoxy-4-penylthiophenyl)pyrazolo[1,5-a]pyrimidine] | 1.5e-07
Cc1nn2c(O)ccnc2c1-c1ccc(Sc2ccccc2)cc1 [Example 18, 7-Hydroxy-2-methyl-3-(4-phenylthiophenyl)pyrazolo[1,5-a]pyrimidine] | 1.2e-06
COCc1nn2c(O)ccnc2c1-c1ccc(Sc2ccccc2)cc1 [Example 19, 7-Hydroxy-2-methoxymethyl-3-(4-phenylthiophenyl)pyrazolo[1,5-a]pyrimidine] | > 5e-06
COc1cnc2c(-c3ccc(Sc4ccccc4)cc3)cnn2c1O [Example 21, 7-Hydroxy-6-methoxy-3-(4-phenylthiophenyl)pyrazolo[1,5-a]pyrimidine] | 1.65e-07
Oc1c(F)cnc2c(-c3ccc(Sc4ccccc4)cc3)cnn12 [Example 22] | 5.2e-08
Cc1cnc2c(-c3ccc(Sc4ccccc4)cc3)cnn2c1O [Example 24, 7-Hydroxy-6-methyl-3-(4-phenylthiophenyl)pyrazolo[1,5-a]pyrimidine] | 6.4e-08
CCc1cnc2c(-c3ccc(Sc4ccccc4)cc3)cnn2c1O [Example 25, 7-Hydroxy-6-ethyl-3-(4-phenylthiophenyl)pyrazolo[1,5-a]pyrimidine] | 1.6e-07
CC(C)c1cnc2c(-c3ccc(Sc4ccccc4)cc3)cnn2c1O [Example 26, 7-Hydroxy-6-isopropyl-3-(4-phenylthiophenyl)pyrazolo[1,5-a]pyrimidine] | 1.8e-07
Oc1c(C2CCCCC2)cnc2c(-c3ccc(Sc4ccccc4)cc3)cnn12 [Example 27, 7-Hydroxy-6-cyclohexyl-3-(4-phenylthiophenyl)pyrazolo[1,5-a]pyrimidine] | 1.3e-07
CCOC(=O)Cc1cnc2c(-c3ccc(Sc4ccccc4)cc3)cnn2c1O [Example 33, 7-Hydroxy-6-ethoxycarbonylmethyl-3-(4-phenylthiophenyl)pyrazolo[1,5-a]pyrimidine] | 2.8e-07
Cc1nc2c(-c3ccc(Sc4ccccc4)cc3)cnn2c(O)c1Cl [Example 37, 7-hydroxy-6-chloro-5-methyl-3-(4-phenylthiophenyl)pyrazolo[1,5-a]pyrimidine] | 5.8e-07
O=C(O)CCc1cnc2c(-c3ccc(Sc4ccccc4)cc3)cnn2c1O [Example 39, 7-Hydroxy-6-carboxyethyl-3-(4-phenylthiophenyl)pyrazolo[1,5-a]pyrimidine] | 1.3e-07
COc1cc(-c2cnn3c(O)c(C(N)=O)cnc23)ccc1Sc1ccccc1 [Example 44, 6-Carbamoyl-7-hydroxy-3-(3-methoxy-4-phenylthiophenyl)pyrazolo[1,5-a]pyrimidine] | 7.7e-08

Further lines, results first:

IC50 [M] | Compound
> 5e-06 | Oc1cc(-c2ccccc2)nc2c(-c3ccc(Sc4ccccc4)cc3)cnn12 [Example 10, 7-Hydroxy-5-phenyl-3-(4-phenylthiophenyl)pyrazolo[1,5-a]pyrimidine]
5.8e-08 | Oc1c(-c2ccccc2)cnc2c(-c3ccc(Sc4ccccc4)cc3)cnn12 [Example 23, 7-Hydroxy-6-phenyl-3-(4-phenylthiophenyl)pyrazolo[1,5-a]pyrimidine]
> 5e-06 | Oc1c(CCc2ccccc2)cnc2c(-c3ccc(Sc4ccccc4)cc3)cnn12 [Example 28, 7-Hydroxy-6-phenethyl-3-(4-phenylthiophenyl)pyrazolo[1,5-a]pyrimidine]
2.5e-08 | Oc1c(Cc2ccccc2)cnc2c(-c3ccc(Sc4ccccc4)cc3)cnn12 [Example 29, 7-Hydroxy-6-benzyl-3-(4-phenylthiophenyl)prazolo[1,5-a]pyrimidine]
3.2e-07 | COc1ccccc1Cc1cnc2c(-c3ccc(Sc4ccccc4)cc3)cnn2c1O [Example 30, 7-Hydroxy-6-(2-methoxyphenylmethyl)-3-(4-phenylthiophenyl)pyrazolo[1,5-a]pyrimidine]
8.8e-08 | Oc1c(Br)cnc2c(-c3ccc(Sc4ccccc4)cc3)cnn12 [Example 35, 7-Hydroxy-6-bromo-3-(4-phenylthiophenyl)pyrazolo[1,5a]pyrimidine]
1.3e-07 | Oc1c(Cl)cnc2c(-c3ccc(Sc4ccccc4)cc3)cnn12 [Example 36, 7-Hydroxy-6-chloro-3-(4-phenylthiophenyl)pyrazolo[1,5-a]pyrimidine]
5.8e-08 | O=C(O)c1cnc2c(-c3ccc(Sc4ccccc4)cc3)cnn2c1O [Example 38, 7-Hydroxy-6-carboxy-3-(4-phenylthiophenyl)pyrazolo[1,5-a]pyrimidine]
2.2e-08 | O=C(O)Cc1cnc2c(-c3ccc(Sc4ccccc4)cc3)cnn2c1O [Example 40, 7-Hydroxy-6-carboxymethyl-3-(4-phenylthiophenyl)pyrazolo[1,5-a]pyrimidine]
3e-06 | O=C(Nc1ccccc1)c1cnc2c(-c3ccc(Sc4ccccc4)cc3)cnn2c1O [Example 42, 7-Hydroxy-6-(N-phenylcarbamoyl)-3-(4-phenylthiophenyl)pyrazolo[1,5-a]pyrimidine]
7.6e-08 | NC(=O)c1cnc2c(-c3ccc(Sc4ccccc4)cc3)cnn2c1O [Example 43]
4e-07 | O=C(Nc1cc(Cl)c(Cl)c(Cl)c1)c1cnc2c(-c3ccc(Sc4ccccc4)cc3)cnn2c1O [Example 45, 7-Hydroxy-3-(4-phenylthiophenyl)-6-(N-3,4,5-trichlorophenyl)carbamoylpyrazolo[1,5-a]pyrimidine]
